Assay results: patent publication US4401660A, “Ester derivatives of 5-O-mycaminosyl tylonolide and method of using same” (Eli Lilly and Company, priority 1981, dated 1983)

How the values were obtained:
[1] = tested on: Haemophilus influenzae Holt; test: MIC, standard agar-dilution assay (Table II); format: cell-based; parameters: unit not given here; settings: ampicillin-sensitive strain
Method: (§1) The MIC's in Table II were determined by standard agar-dilution assays. The MIC's in Table III were obtained using a conventional broth-dilution microtiter test.

[2] = tested on: Haemophilus influenzae R252; test: MIC, standard agar-dilution assay (Table II); format: cell-based; parameters: unit not given here; settings: Haemophilus influenzae R252, ampicillin-resistant strain
Method: as §1

[3] = tested on: Staphylococcus aureus S13E; test: MIC, standard agar-dilution assay (Table II); format: cell-based; parameters: unit not given here
Method: as §1

[4] = tested on: Staphylococcus aureus V41; test: MIC, standard agar-dilution assay (Table II); format: cell-based; parameters: unit not given here; settings: Staphylococcus aureus V41, penicillin-resistant strain
Method: as §1

[5] = tested on: Staphylococcus aureus X1.1; test: MIC, standard agar-dilution assay (Table II); format: cell-based; parameters: unit not given here
Method: as §1

[6] = tested on: Staphylococcus aureus X400; test: MIC, standard agar-dilution assay (Table II); format: cell-based; parameters: unit not given here; settings: Staphylococcus aureus X400, methicillin-resistant strain
Method: as §1

[7] = tested on: Staphylococcus epidermidis EPI1; test: MIC, standard agar-dilution assay (Table II); format: cell-based; parameters: unit not given here
Method: as §1

[8] = tested on: Staphylococcus epidermidis EPI2; test: MIC, standard agar-dilution assay (Table II); format: cell-based; parameters: unit not given here
Method: as §1

[9] = tested on: Streptococcus Group D 9960; test: MIC, standard agar-dilution assay (Table II); format: cell-based; parameters: unit not given here
Method: as §1

[10] = tested on: Streptococcus Group D X66; test: MIC, standard agar-dilution assay (Table II); format: cell-based; parameters: unit not given here
Method: as §1

[11] = tested on: Streptococcus pneumoniae Park I; test: MIC, standard agar-dilution assay (Table II); format: cell-based; parameters: unit not given here
Method: as §1

[12] = tested on: Streptococcus pyogenes C203; test: MIC, standard agar-dilution assay (Table II); format: cell-based; parameters: unit not given here
Method: as §1

Mycoplasma gallisepticum = test: MIC, broth-dilution microtiter test (Table III); format: cell-based; parameters: unit not given here
Method: as §1

Mycoplasma hyorhinis = test: MIC, broth-dilution microtiter test (Table III); format: cell-based; parameters: unit not given here
Method: as §1

[13] = tested on: Pasteurella haemolytica 22C; test: MIC, broth-dilution microtiter test (Table III); format: cell-based; parameters: unit not given here
Method: as §1

[14] = tested on: Pasteurella haemolytica 23C; test: MIC, broth-dilution microtiter test (Table III); format: cell-based; parameters: unit not given here
Method: as §1

[15] = tested on: Pasteurella haemolytica 41D; test: MIC, broth-dilution microtiter test (Table III); format: cell-based; parameters: unit not given here
Method: as §1

[16] = tested on: Pasteurella multocida 17E; test: MIC, broth-dilution microtiter test (Table III); format: cell-based; parameters: unit not given here; settings: bovine isolate
Method: as §1

[17] = tested on: Pasteurella multocida 22A; test: MIC, broth-dilution microtiter test (Table III); format: cell-based; parameters: unit not given here
Method: as §1

[18] = tested on: Pasteurella multocida 40G; test: MIC, broth-dilution microtiter test (Table III); format: cell-based; parameters: unit not given here
Method: as §1

[19] = tested on: Pasteurella multocida 60A; test: MIC, broth-dilution microtiter test (Table III); format: cell-based; parameters: unit not given here; settings: avian isolate
Method: as §1

[20] = tested on: Pasteurella multocida 68C; test: MIC, broth-dilution microtiter test (Table III); format: cell-based; parameters: unit not given here
Method: as §1

Staphylococcus aureus = test: MIC, broth-dilution microtiter test (Table III); format: cell-based; parameters: unit not given here
Method: as §1

Streptococcus sp. 80 = test: MIC, broth-dilution microtiter test (Table III); format: cell-based; parameters: unit not given here
Method: as §1

Pasteurella multocida = test: Treatment of Pasteurella infections in chicks (Table V); format: in vivo, one-day-old chicks; settings: 30 mg/kg by subcutaneous injection one and four hours post challenge; for mortality at 30 mg/kg: Pasteurella multocida, sc, 4 h, read-out: Deaths in Treated Chicks/Number Treated (converted)
Method in brief: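 Dosing was 30 mg/kg by subcutaneous injection, one and four hours after challenge. Day-old chicks received 0.1 ml of a 10^-3 dilution of a 20-hour tryptose broth culture of avian P. multocida subcutaneously. Nonmedicated infected chicks served as controls, ten per group.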

Mycoplasma synoviae = test: MIC, broth-dilution microtiter test (Table III); format: cell-based; parameters: unit not given here
Method: as §1

For `CCC1OC(=O)CC(O)C(C)C(OC2OC(C)C(O)C(N(C)C)C2O)C(CC=O)CC(C)C(=O)C=CC(C)=CC1COC(=O)CCc1ccccc1` (centres unmarked) [Compound 54], the “minimal inhibitory concentration (MIC)” value [1] was 0.25, the “minimal inhibitory concentration (MIC)” value [2] was 0.25 and the “minimal inhibitory concentration (MIC)” value [3] was 0.125. For the same molecule, the “minimal inhibitory concentration (MIC)” value [4] was 0.25, the “minimal inhibitory concentration (MIC)” value [5] was 0.125 and the “minimal inhibitory concentration (MIC)” value [6] was 0.25. The “minimal inhibitory concentration (MIC)” value [7] was 0.125, the “minimal inhibitory concentration (MIC)” value [8] was 0.25 and the “minimal inhibitory concentration (MIC)” value [9] was 0.125. For the same molecule, the “minimal inhibitory concentration (MIC)” value [10] was 0.125, the “minimal inhibitory concentration (MIC)” value [11] was 0.015 and the “minimal inhibitory concentration (MIC)” value [12] was 0.06. The “minimal inhibitory concentration (MIC)” value (Mycoplasma gallisepticum) was 0.097, the “minimal inhibitory concentration (MIC)” value (Mycoplasma hyorhinis) was 0.78 and the “minimal inhibitory concentration (MIC)” value [13] was 3.12. The “minimal inhibitory concentration (MIC)” value [14] was 3.12, the “minimal inhibitory concentration (MIC)” value [15] was 3.12 and the “minimal inhibitory concentration (MIC)” value [16] was 0.78. The “minimal inhibitory concentration (MIC)” value [17] was 6.25, the “minimal inhibitory concentration (MIC)” value [18] was 3.12 and the “minimal inhibitory concentration (MIC)” value [19] was 1.56. The “minimal inhibitory concentration (MIC)” value [20] was 0.78, the “minimal inhibitory concentration (MIC)” value (Staphylococcus aureus) was 0.195 and the “minimal inhibitory concentration (MIC)” value (Streptococcus sp. 80) was 0.195. For the same molecule, the “Deaths in Treated Chicks/Number Treated” value (Pasteurella multocida) was 0/10.
For `CCC1OC(=O)CC(O)C(C)C(OC2OC(C)C(OC(C)=O)C(N(C)C)C2OC(C)=O)C(CC=O)CC(C)C(=O)C=CC(C)=CC1COC(=O)[C@H](NC(=O)OC(C)(C)C)c1ccccc1` (some centres unmarked) [Compound 39, 2',4'-Di-O-acetyl-23-O-(N-t-BOC-phenylglycyl)-OMT], the “minimal inhibitory concentration (MIC)” value [1] was 2, the “minimal inhibitory concentration (MIC)” value [2] was 2 and the “minimal inhibitory concentration (MIC)” value [3] was 0.5. For the same molecule, the “minimal inhibitory concentration (MIC)” value [4] was 1, the “minimal inhibitory concentration (MIC)” value [5] was 0.5 and the “minimal inhibitory concentration (MIC)” value [6] was 1. For the same molecule, the “minimal inhibitory concentration (MIC)” value [7] was 0.5, the “minimal inhibitory concentration (MIC)” value [8] was 1 and the “minimal inhibitory concentration (MIC)” value [9] was 0.5. The “minimal inhibitory concentration (MIC)” value [10] was 0.5, the “minimal inhibitory concentration (MIC)” value [11] was 0.03 and the “minimal inhibitory concentration (MIC)” value [12] was 0.125. The “minimal inhibitory concentration (MIC)” value (Mycoplasma gallisepticum) was < 0.05, the “minimal inhibitory concentration (MIC)” value (Mycoplasma hyorhinis) was 1.56 and the “minimal inhibitory concentration (MIC)” value [13] was 12.5. For the same molecule, the “minimal inhibitory concentration (MIC)” value [14] was 12.5, the “minimal inhibitory concentration (MIC)” value [15] was 12.5 and the “minimal inhibitory concentration (MIC)” value [16] was 6.25. For the same molecule, the “minimal inhibitory concentration (MIC)” value [17] was 25, the “minimal inhibitory concentration (MIC)” value [18] was 6.25 and the “minimal inhibitory concentration (MIC)” value [19] was 12.5. For the same molecule, the “minimal inhibitory concentration (MIC)” value [20] was 12.5, the “minimal inhibitory concentration (MIC)” value (Staphylococcus aureus) was 1.56 and the “minimal inhibitory concentration (MIC)” value (Streptococcus sp. 80) was 0.195. For the same molecule, the mortality at 30 mg/kg (Pasteurella multocida) was 100%.
`CCC1OC(=O)CC(O)C(C)C(OC2OC(C)C(O)C(N(C)C)C2OC(C)=O)C(CC=O)CC(C)C(=O)C=CC(C)=CC1COC(=O)Cc1ccc(Cl)cc1` (centres unmarked) [Compound 31, 2'-O-Acetyl-23-O-(p-chlorophenylacetyl)-OMT] was tested, and the “minimal inhibitory concentration (MIC)” value [3] was 0.125, the “minimal inhibitory concentration (MIC)” value [4] was 0.125 and the “minimal inhibitory concentration (MIC)” value [5] was 0.125. For the same molecule, the “minimal inhibitory concentration (MIC)” value [6] was 0.25, the “minimal inhibitory concentration (MIC)” value [7] was 0.125 and the “minimal inhibitory concentration (MIC)” value [8] was 0.25. For the same molecule, the “minimal inhibitory concentration (MIC)” value [9] was 0.125, the “minimal inhibitory concentration (MIC)” value [10] was 0.125 and the “minimal inhibitory concentration (MIC)” value [11] was 0.03. The “minimal inhibitory concentration (MIC)” value [12] was 0.125, the “minimal inhibitory concentration (MIC)” value (Mycoplasma gallisepticum) was < 0.05 and the “minimal inhibitory concentration (MIC)” value (Mycoplasma hyorhinis) was 3.12. The “minimal inhibitory concentration (MIC)” value (Mycoplasma synoviae) was < 0.05, the “minimal inhibitory concentration (MIC)” value [13] was 1.56 and the “minimal inhibitory concentration (MIC)” value [14] was 1.56. The “minimal inhibitory concentration (MIC)” value [15] was 3.12, the “minimal inhibitory concentration (MIC)” value [16] was 1.56 and the “minimal inhibitory concentration (MIC)” value [17] was 1.56. The “minimal inhibitory concentration (MIC)” value [18] was 1.56, the “minimal inhibitory concentration (MIC)” value [19] was 0.78 and the “minimal inhibitory concentration (MIC)” value [20] was 0.78. For the same molecule, the “minimal inhibitory concentration (MIC)” value (Staphylococcus aureus) was < 0.05, the “minimal inhibitory concentration (MIC)” value (Streptococcus sp. 80) was < 0.05 and the mortality at 30 mg/kg (Pasteurella multocida) was 100%.
